Test results published in patent US20060069132A1, “Azolecarboxamide herbicides” (priority 2004, published 2006).

How the values were obtained:
cocklebur = test: Test C pre-/postemergence herbicide test; format: in vivo, Xanthium strumarium; settings: for Cocklebur plant response rating: 500 g ai/ha
Procedure, shortened: (§1)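 Greenhouse-grown plants were evaluated visually 12 to 14 days after treatment, with 100 meaning complete control and 0 no effect. Application was preemergence, or postemergence at 2 to 18 cm.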

soybean = test: Test C pre-/postemergence herbicide test; format: in vivo, Glycine max; settings: for Soybean plant response rating: 500 g ai/ha
Procedure, shortened: as §1

ducksalad = test: Test C flooded paddy test; format: in vivo, Heteranthera limosa; settings: for Plant response rating, Ducksalad: 500 g ai/ha, visual rating after 12 to 14 days
bermudagrass = test: Test C pre-/postemergence herbicide test; format: in vivo, Cynodon dactylon; settings: for Bermudagrass plant response rating: 500 g ai/ha
Procedure, shortened: as §1

corn = test: Test C pre-/postemergence herbicide test; format: in vivo, Zea mays; settings: for Corn plant response rating: 500 g ai/ha
Procedure, shortened: as §1

velvetleaf [1] = test: Test C pre-/postemergence herbicide test; format: in vivo, Abutilon theophrasti; settings: for Velvetleaf plant response rating: 500 g ai/ha
Procedure, shortened: as §1

morningglory = test: Test A pre-/postemergence herbicide test; format: in vivo, Ipomoea spp.
Procedure, shortened: (§2)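 Plants are held in greenhouse about ten days after treatment, then compared with untreated controls and scored 0 (no effect) to 100 (complete control). Preemergence dosing is a directed soil spray on sown sandy loam; postemergence dosing is spray to runoff at 2–10 cm height.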

barnyardgrass = test: Test A pre-/postemergence herbicide test; format: in vivo, Echinochloa crus-galli
Procedure, shortened: as §2

rice = test: Test C flooded paddy test; format: in vivo, Oryza sativa; settings: for Plant response rating, Rice: 500 g ai/ha, visual rating after 12 to 14 days
Procedure, shortened: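 Postemergence sprays applied to plants 2 to 18 cm tall (1- to 4-leaf stage); paddy species grown to 2-leaf stage under flooding. After 12 to 14 days in greenhouse, visual rating versus untreated controls on 0–100 scale (0 no effect, 100 complete control).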

johnsongrass = test: Test C pre-/postemergence herbicide test; format: in vivo, Sorghum halepense; settings: for Johnsongrass plant response rating: 500 g ai/ha
Procedure, shortened: as §1

[2] = test system: smallflower umbrella sedge; test: Test C flooded paddy test; format: in vivo, Cyperus difformis; settings: for Plant response rating, Sedge, Umbrella: 500 g ai/ha, visual rating after 12 to 14 days
velvetleaf [3] = test: Test A pre-/postemergence herbicide test; format: in vivo, Abutilon theophrasti
Procedure, shortened: as §2

goosegrass = test: Test C pre-/postemergence herbicide test; format: in vivo, Eleusine indica; settings: for Goosegrass plant response rating: 500 g ai/ha
Procedure, shortened: as §1

[4] = Postemergence, 250 g ai/ha, scale 0 to 100, 0 no effect, 100 complete control
[5] = postemergence, 125 g ai/ha, scale 0 to 100
[6] = postemergence, 62 g ai/ha, scale 0 to 100
[7] = 62 g ai/ha, scale 0 to 100 (0 no effect, 100 complete control)
[8] = 125 g ai/ha, scale of 0 to 100, 0 is no effect, 100 is complete control
[9] = 250 g ai/ha, scale of 0 to 100, 0 is no effect, 100 is complete control
[10] = scale 0 to 100 (0 no effect, 100 complete control)
[11] = Postemergence, 500 g ai/ha, 0 to 100 scale, 0 no effect, 100 complete control
[12] = Postemergence, 2000 g ai/ha, 0 to 100 scale, 0 no effect, 100 complete control
[13] = Preemergence, 500 g ai/ha, visual rating, 0 to 100 scale (0 no effect, 100 complete control)
[14] = Preemergence, 2000 g ai/ha, visual rating, 0 to 100 scale (0 no effect, 100 complete control)
[15] = 125 g ai/ha, scale 0 (no effect) to 100 (complete control), visual, 12 to 14 days, preemergence
[16] = 250 g ai/ha, scale 0 to 100 (0 no effect, 100 complete control), visual, 12 to 14 days, preemergence
[17] = Preemergence, scale 0 to 100, 0 no effect, 100 complete control
[18] = 125 g ai/ha, scale 0 to 100 (0 no effect, 100 complete control)
[19] = Postemergence, 250 g ai/ha, 0 to 100 scale, 0 no effect, 100 complete control
[20] = Postemergence, 1000 g ai/ha, 0 to 100 scale, 0 no effect, 100 complete control
[21] = Preemergence, 1000 g ai/ha, visual rating, 0 to 100 scale (0 no effect, 100 complete control)
[22] = preemergence, 250 g ai/ha, visual injury, 0 to 100 scale (0 no effect, 100 complete control)

Structure (SMILES): CC(=NO)c1cccc(NC(=O)c2cc(C(C)(C)C)nn2CC(F)(F)F)c1 [Compound 112]
- Cocklebur plant response rating (cocklebur; Postemergence, scale 0 to 100): 70
- Plant response rating, Cocklebur (cocklebur; [4]): 60
- Plant response rating, Cocklebur (cocklebur; [5]): 30
- Plant response rating, Cocklebur (cocklebur; [6]): 0
- Soybean plant response rating (soybean; Postemergence, scale 0 to 100): 60
- Plant response rating, Soybean (soybean; [4]): 50
- Plant response rating, Soybean (soybean; [5]): 0
- Plant response rating, Soybean (soybean; [6]): 0
- Ducksalad plant response rating (ducksalad; [7]): 0
- Ducksalad plant response rating (ducksalad; [8]): 0
- Ducksalad plant response rating (ducksalad; [9]): 0
- Plant response rating, Ducksalad (ducksalad; [10]): 100
- Bermudagrass plant response rating (bermudagrass; Postemergence, scale 0 to 100): 30
- Plant response rating, Bermudagrass (bermudagrass; [4]): 30
- Plant response rating, Bermudagrass (bermudagrass; [5]): 0
- Plant response rating, Bermudagrass (bermudagrass; [6]): 0
- Corn plant response rating (corn; Postemergence, scale 0 to 100): 30
- Plant response rating, Corn (corn; [5]): 20
- Plant response rating, Corn (corn; [6]): 10
- Velvetleaf plant response rating (velvetleaf [1]; Postemergence, scale 0 to 100): 90
- Plant response rating, Velvetleaf (velvetleaf [1]; [4]): 80
- Plant response rating, Velvetleaf (velvetleaf [1]; [5]): 0
- Plant response rating, Velvetleaf (velvetleaf [1]; [6]): 0
- Morningglory plant response rating (morningglory; [11]): 20
- Plant response rating, Morningglory (morningglory; [12]): 15
- Morningglory plant response rating (morningglory; [13]): 20
- Morningglory plant response rating (morningglory; [14]): 45
- Barnyardgrass plant response rating (barnyardgrass; [11]): 35
- Plant response rating, Barnyardgrass (barnyardgrass; [12]): 45
- Barnyardgrass plant response rating (barnyardgrass; [13]): 25
- Barnyardgrass plant response rating (barnyardgrass; [14]): 50
- Rice plant response rating (rice; [7]): 0
- Rice plant response rating (rice; [8]): 0
- Rice plant response rating (rice; [9]): 10
- Plant response rating, Rice (rice; [10]): 30
- Johnsongrass plant response rating (johnsongrass; Postemergence, scale 0 to 100): 60
- Plant response rating, Johnsongrass (johnsongrass; [4]): 50
- Plant response rating, Johnsongrass (johnsongrass; [5]): 20
- Plant response rating, Johnsongrass (johnsongrass; [6]): 20
- Sedge, Umbrella plant response rating [2, 7]: 0
- Sedge, Umbrella plant response rating [2, 8]: 0
- Sedge, Umbrella plant response rating [2, 9]: 25
- Plant response rating, Sedge, Umbrella [2, 10]: 50
- Velvetleaf plant response rating (velvetleaf [3]; [11]): 25
- Plant response rating, Velvetleaf (velvetleaf [3]; [12]): 35
- Velvetleaf plant response rating (velvetleaf [3]; [13]): 25
- Velvetleaf plant response rating (velvetleaf [3]; [14]): 50
- Goosegrass plant response rating (goosegrass; Postemergence, scale 0 to 100): 30
- Plant response rating, Goosegrass (goosegrass; [4]): 30
- Plant response rating, Goosegrass (goosegrass; [5]): 20
- Plant response rating, Goosegrass (goosegrass; [6]): 20

Structure (SMILES): CCn1nc(C(C)(C)C)cc1C(=O)Nc1cccc(S(=O)(=O)C(F)(F)F)c1 [Compound 134]
- Plant response rating (0 = no effect, 100 = complete control), Cocklebur (cocklebur; 62 g ai/ha, preemergence): 0
- Plant response rating, Cocklebur (cocklebur; [15]): 0
- Plant response rating, Cocklebur (cocklebur; [16]): 0
- Cocklebur plant response rating (cocklebur; [17]): 0
- Plant response rating (0 = no effect, 100 = complete control), Soybean (soybean; 62 g ai/ha, preemergence): 0
- Plant response rating, Soybean (soybean; [15]): 0
- Soybean plant response rating (soybean; [17]): 35
- Ducksalad plant response rating (ducksalad; [7]): 45
- Ducksalad plant response rating (ducksalad; [18]): 70
- Ducksalad plant response rating (ducksalad; [9]): 90
- Plant response rating, Ducksalad (ducksalad; [10]): 90
- Plant response rating (0 = no effect, 100 = complete control), Bermudagrass (bermudagrass; 62 g ai/ha, preemergence): 80
- Plant response rating, Bermudagrass (bermudagrass; [15]): 95
- Plant response rating, Bermudagrass (bermudagrass; [16]): 95
- Bermudagrass plant response rating (bermudagrass; [17]): 100
- Plant response rating (0 = no effect, 100 = complete control), Corn (corn; 62 g ai/ha, preemergence): 0
- Plant response rating, Corn (corn; [15]): 0
- Plant response rating, Corn (corn; [16]): 0
- Corn plant response rating (corn; [17]): 60
- Plant response rating, Velvetleaf (velvetleaf [1]; [15]): 90
- Velvetleaf plant response rating (velvetleaf [1]; [17]): 100
- Morningglory plant response rating (morningglory; [19]): 10
- Plant response rating, Morningglory (morningglory; [20]): 20
- Morningglory plant response rating (morningglory; [21]): 30
- Morningglory plant response rating (morningglory; [22]): 5
- Barnyardgrass plant response rating (barnyardgrass; [19]): 30
- Plant response rating, Barnyardgrass (barnyardgrass; [20]): 70
- Barnyardgrass plant response rating (barnyardgrass; [21]): 45
- Barnyardgrass plant response rating (barnyardgrass; [22]): 25
- Rice plant response rating (rice; [7]): 35
- Rice plant response rating (rice; [18]): 45
- Rice plant response rating (rice; [9]): 55
- Plant response rating, Rice (rice; [10]): 60
- Plant response rating (0 = no effect, 100 = complete control), Johnsongrass (johnsongrass; 62 g ai/ha, preemergence): 0
- Plant response rating, Johnsongrass (johnsongrass; [15]): 40
- Johnsongrass plant response rating (johnsongrass; [17]): 65
- Sedge, Umbrella plant response rating [2, 7]: 55
- Sedge, Umbrella plant response rating [2, 18]: 75
- Sedge, Umbrella plant response rating [2, 9]: 85
- Plant response rating, Sedge, Umbrella [2, 10]: 85
- Velvetleaf plant response rating (velvetleaf [3]; [19]): 20
- Plant response rating, Velvetleaf (velvetleaf [3]; [20]): 20
- Velvetleaf plant response rating (velvetleaf [3]; [21]): 40
- Velvetleaf plant response rating (velvetleaf [3]; [22]): 15
- Plant response rating (0 = no effect, 100 = complete control), Goosegrass (goosegrass; 62 g ai/ha, preemergence): 20
- Plant response rating, Goosegrass (goosegrass; [15]): 65
- Goosegrass plant response rating (goosegrass; [17]): 95
